Key:
Test in all cases: Ba/F3 drug screening, Cell Titer Glo, IC50 Mut/WT
Assay type in all cases: cell-based
EGFR L858R S784F = biological target: T1, EGFR L858R S784F (Homo sapiens, UniProt P00533, L858R/S784F); conditions: Classical-Like, 72 hours
T1 construct: expressed in transfected cells; host or cells: Ba/F3 cells, retroviral pBabe-Puro vector (vector made by GeneScript from EGFR L858R)
Experimental: (§1) Data represent the ratio of the IC50 value for a given TKI for cells with a classical-like EGFR mutation to the IC50 value for cells with wildtype EGFR.
(§2) Ba/F3 cell generation, drug screening, and IC50 approximations. Ba/F3 cells were obtained as a gift from Dr. Gordon Mills (MD Anderson Cancer Center), and maintained in RPMI (Sigma) containing 10% FBS, 1% penicillin/streptomycin, and 10 ng/ml recombinant mIL-3 (R&D Biosystems). To establish stable Ba/F3 cell lines, Ba/F3 cells were transduced with retroviruses containing mutant EGFR plasmids for 12-24 hours.
(§3) After 48-72 hours of transduction, 2 μg/ml puromycin (Invitrogen) was added to Ba/F3 cell lines in complete RPMI. To select for EGFR positive cell lines, cells were stained with PE-EGFR (Biolegend) and sorted by FACS. After sorting, EGFR positive cells were maintained in RPMI containing 10% FBS, 1% penicillin/streptomycin, and 1 ng/ml EGF to support cell viability. […] Shortly, cells were plated in 384-well plates (Greiner Bio-One) at 2000-3000 cells per well in technical triplicate. Seven different concentrations of TKIs or DMSO vehicle were added to reach a final volume of 40 μL per well. After 72 hours, 11 μL of Cell Titer Glo (Promega) was added to each well. Plates were incubated for a minimum of 10 minutes, and bioluminescence was determined using a FLUOstar OPTIMA plate reader (BMG LABTECH). Raw bioluminescence values were normalized to DMSO control treated cells, and values were plotted in GraphPad Prism. […] Drug screens were performed in technical triplicate on each plate and either duplicate or triplicate biological replicates.

EGFR Ex19del = biological target: T2, EGFR Ex19del (Homo sapiens, UniProt P00533, DEL746-750); conditions: Classical-Like, 72 hours
T2 construct: expressed in transfected cells; host or cells: Ba/F3 cells, retroviral pBabe-Puro vector

EGFR L833F = biological target: T3, EGFR L833F (Homo sapiens, UniProt P00533, L833F); conditions: Classical-Like, 72 hours
T3 construct: expressed in transfected cells; host or cells: Ba/F3 cells, retroviral pBabe-Puro vector
Experimental: as §1, §2, §3

EGFR L858R/T790M = biological target: T4, EGFR L858R/T790M (Homo sapiens, UniProt P00533, L858R/T790M); conditions: T790M-like-3S, 72 hours
T4 construct: expressed in transfected cells; host or cells: Ba/F3

EGFR G719A T790M = biological target: T5, EGFR G719A T790M (Homo sapiens, UniProt P00533, G719A/T790M); conditions: T790M-like-3S, 72 hours
T5 construct: expressed in transfected cells; host or cells: Ba/F3

EGFR Ex19del G796S = biological target: T6, EGFR Ex19del G796S (Homo sapiens, UniProt P00533, DEL746-750/G796S); conditions: Ba/F3 cells, EGFR Ex19del G796S (PACC), Mut/WT
T6 construct: expressed in transfected cells; host or cells: Ba/F3

EGFR L858R/T790M/C797S = biological target: T7, EGFR L858R/T790M/C797S (Homo sapiens, UniProt P00533, C797S/L858R/T790M); conditions: T790M-like-3R, 72 hours
T7 construct: expressed in transfected cells; host or cells: Ba/F3

EGFR S768dupSVD V769M = biological target: T8, EGFR S768dupSVD V769M (Homo sapiens, UniProt P00533, INS768MDS/V769M); conditions: Ex20, 72 hours
T8 construct: expressed in transfected cells; host or cells: Ba/F3 cells, retroviral pBabe-Puro vector (vector made by GeneScript from EGFR S768dupSVD, c.2305G > A)
Experimental: Data represent the ratio of the IC50 value for a given TKI for cells with an ex20ins EGFR mutation to the IC50 value for cells with wildtype EGFR.
as §2
After 48-72 hours of transduction, 2 μg/ml puromycin (Invitrogen) was added to Ba/F3 cell lines in complete RPMI. To select for EGFR positive cell lines, cells were stained with PE-EGFR (Biolegend) and sorted by FACS. After sorting, EGFR positive cells were maintained in RPMI containing 10% FBS, 1% penicillin/streptomycin, and 1 ng/ml EGF to support cell viability. Drug screening was performed as previously described^41,42. Shortly, cells were plated in 384-well plates (Greiner Bio-One) at 2000-3000 cells per well in technical triplicate. Seven different concentrations of TKIs or DMSO vehicle were added to reach a final volume of 40 μL per well. After 72 hours, 11 μL of Cell Titer Glo (Promega) was added to each well. Plates were incubated for a minimum of 10 minutes, and bioluminescence was determined using a FLUOstar OPTIMA plate reader (BMG LABTECH). Raw bioluminescence values were normalized to DMSO control treated cells, and values were plotted in GraphPad Prism. […] Drug screens were performed in technical triplicate on each plate and either duplicate or triplicate biological replicates. […] Statistical differences between groups were determined by ANOVA as described in the figure legends.

EGFR I740dupIPVAK = conditions: Ba/F3 cells, EGFR I740dupIPVAK (PACC), Mut/WT
EGFR L858R L718Q = biological target: T9, EGFR L858R L718Q (Homo sapiens, UniProt P00533, L718Q/L858R); conditions: Ba/F3 cells, EGFR L858R L718Q (PACC), Mut/WT
T9 construct: host or cells: Ba/F3

EGFR E709_T710del insD = biological target: T10, EGFR E709_T710del insD (Homo sapiens, UniProt P00533, DEL709-709/T710D); conditions: Ba/F3 cells, EGFR E709_T710del insD (PACC), Mut/WT
T10 construct: expressed in transfected cells; host or cells: Ba/F3

EGFR L858R T790M L718V = biological target: T11, EGFR L858R T790M L718V (Homo sapiens, UniProt P00533, L718V/L858R/T790M); conditions: T790M-like-3R, 72 hours
T11 construct: expressed in transfected cells; host or cells: Ba/F3
Experimental: (§4) Data represent the ratio of the IC50 value for a given TKI for cells with a T790M-like-3R EGFR mutation to the IC50 value for cells with wildtype EGFR.
as §2
(§5) After 48-72 hours of transduction, 2 μg/ml puromycin (Invitrogen) was added to Ba/F3 cell lines in complete RPMI. To select for EGFR positive cell lines, cells were stained with PE-EGFR (Biolegend) and sorted by FACS. After sorting, EGFR positive cells were maintained in RPMI containing 10% FBS, 1% penicillin/streptomycin, and 1 ng/ml EGF to support cell viability. […] Shortly, cells were plated in 384-well plates (Greiner Bio-One) at 2000-3000 cells per well in technical triplicate. Seven different concentrations of TKIs or DMSO vehicle were added to reach a final volume of 40 μL per well. After 72 hours, 11 μL of Cell Titer Glo (Promega) was added to each well. Plates were incubated for a minimum of 10 minutes, and bioluminescence was determined using a FLUOstar OPTIMA plate reader (BMG LABTECH). Raw bioluminescence values were normalized to DMSO control treated cells, and values were plotted in GraphPad Prism. […] Drug screens were performed in technical triplicate on each plate and either duplicate or triplicate biological replicates. […] Statistical differences between groups were determined by ANOVA as described in the figure legends.

EGFR G719A L861Q = biological target: T12, EGFR G719A L861Q (Homo sapiens, UniProt P00533, G719A/L861Q); conditions: Ba/F3 cells, EGFR G719A L861Q (PACC), Mut/WT
T12 construct: expressed in transfected cells; host or cells: Ba/F3

EGFR Ex19del T790M C797S = biological target: T13, EGFR Ex19del T790M C797S (Homo sapiens, UniProt P00533, C797S/DEL746-750/T790M); conditions: T790M-like-3R, 72 hours
T13 construct: expressed in transfected cells; host or cells: Ba/F3

EGFR S768I V774M = biological target: T14, EGFR S768I V774M (Homo sapiens, UniProt P00533, S768I/V774M); conditions: Ba/F3 cells, EGFR S768I V774M (PACC), Mut/WT
T14 construct: host or cells: Ba/F3

EGFR T725M = biological target: T15, EGFR T725M (Homo sapiens, UniProt P00533, T725M); conditions: Classical-Like, 72 hours
T15 construct: expressed in transfected cells; host or cells: Ba/F3 cells, retroviral pBabe-Puro vector (vector made by GeneScript from EGFR WT)
Experimental: as §1, §2, §3

EGFR L718Q T790M = biological target: T16, EGFR L718Q T790M (Homo sapiens, UniProt P00533, L718Q/T790M); conditions: T790M-like-3R, 72 hours
T16 construct: expressed in transfected cells; host or cells: Ba/F3
Experimental: as §4, §2, §5

EGFR Ex19del G724S = biological target: T17, EGFR Ex19del G724S (Homo sapiens, UniProt P00533, DEL746-750/G724S); conditions: Ba/F3 cells, EGFR Ex19del G724S (PACC), Mut/WT
T17 construct: expressed in transfected cells; host or cells: Ba/F3

EGFR Ex19del T790M = biological target: T18, EGFR Ex19del T790M (Homo sapiens, UniProt P00533, DEL746-750/T790M); conditions: T790M-like-3S, 72 hours
T18 construct: expressed in transfected cells; host or cells: Ba/F3
Experimental: Data represent the ratio of the IC50 value for a given TKI for cells with a T790M-like-3S EGFR mutation to the IC50 value for cells with wildtype EGFR.
as §2
(§6) After 48-72 hours of transduction, 2 μg/ml puromycin (Invitrogen) was added to Ba/F3 cell lines in complete RPMI. To select for EGFR positive cell lines, cells were stained with PE-EGFR (Biolegend) and sorted by FACS. After sorting, EGFR positive cells were maintained in RPMI containing 10% FBS, 1% penicillin/streptomycin, and 1 ng/ml EGF to support cell viability. Drug screening was performed as previously described^41,42. Shortly, cells were plated in 384-well plates (Greiner Bio-One) at 2000-3000 cells per well in technical triplicate. Seven different concentrations of TKIs or DMSO vehicle were added to reach a final volume of 40 μL per well. After 72 hours, 11 μL of Cell Titer Glo (Promega) was added to each well. Plates were incubated for a minimum of 10 minutes, and bioluminescence was determined using a FLUOstar OPTIMA plate reader (BMG LABTECH). Raw bioluminescence values were normalized to DMSO control treated cells, and values were plotted in GraphPad Prism. […] Drug screens were performed in technical triplicate on each plate and either duplicate or triplicate biological replicates.

EGFR L718Q = biological target: T19, EGFR L718Q (Homo sapiens, UniProt P00533, L718Q); conditions: Ba/F3 cells, EGFR L718Q (PACC), Mut/WT
T19 construct: expressed in transfected cells; host or cells: Ba/F3

EGFR R776H = biological target: T20, EGFR R776H (Homo sapiens, UniProt P00533, R776H); conditions: Ba/F3 cells, EGFR R776H (PACC), Mut/WT
T20 construct: host or cells: Ba/F3

EGFR Ex19del T790M L718V = biological target: T21, EGFR Ex19del T790M L718V (Homo sapiens, UniProt P00533, DEL746-750/L718V/T790M); conditions: T790M-like-3S, 72 hours
T21 construct: expressed in transfected cells; host or cells: Ba/F3

EGFR L861R = biological target: T22, EGFR L861R (Homo sapiens, UniProt P00533, L861R); conditions: Classical-Like, 72 hours
T22 construct: expressed in transfected cells; host or cells: Ba/F3 cells, retroviral pBabe-Puro vector (vector made by GeneScript from EGFR WT)
Experimental: as §1, §2, §3

EGFR A763insFQEA = biological target: T23, EGFR A763insFQEA (Homo sapiens, UniProt P00533, INS763FQEA); conditions: Classical-Like, 72 hours
T23 construct: expressed in transfected cells; host or cells: Ba/F3 cells, retroviral pBabe-Puro vector
Experimental: as §1, §2, §3

EGFR L858R = biological target: T24, EGFR L858R (Homo sapiens, UniProt P00533, L858R); conditions: Classical-Like, 72 hours
T24 construct: expressed in transfected cells; host or cells: Ba/F3 cells, retroviral pBabe-Puro vector
Experimental: as §1, §2, §3

EGFR R776C = biological target: T25, EGFR R776C (Homo sapiens, UniProt P00533, R776C); conditions: Ba/F3 cells, EGFR R776C (PACC), Mut/WT
T25 construct: host or cells: Ba/F3
Experimental: Data represent the ratio of the IC50 value for a given TKI for cells with a PACC EGFR mutation to the IC50 value for cells with wildtype EGFR.
as §2, §6

Structure (SMILES): C=CC(=O)N[C@H]1C=C(C)c2c(-c3cnc4ccccc4c3)c3c(N)ncnc3n2C1 [TAS 6417]
- ratio of IC50 for cells with mutant EGFR to IC50 for cells with wildtype EGFR (Mut/WT) (EGFR L858R S784F): 0.001423
- ratio of IC50 for cells with mutant EGFR to IC50 for cells with wildtype EGFR (Mut/WT) (EGFR Ex19del): 0.00149
- ratio of IC50 for cells with mutant EGFR to IC50 for cells with wildtype EGFR (Mut/WT) (EGFR L833F): 0.06886
- ratio of IC50 for cells with mutant EGFR to IC50 for cells with wildtype EGFR (Mut/WT) (EGFR L858R/T790M): 0.01963
- ratio of IC50 for cells with mutant EGFR to IC50 for cells with wildtype EGFR (Mut/WT) (EGFR G719A T790M): 0.01296
- ratio of the IC50 value for cells with a PACC EGFR mutation to the IC50 value for cells with wildtype EGFR (EGFR Ex19del G796S): 0.06554
- ratio of IC50 for cells with mutant EGFR to IC50 for cells with wildtype EGFR (Mut/WT) (EGFR L858R/T790M/C797S): 4.897
- ratio of IC50 for cells with mutant EGFR to IC50 for cells with wildtype EGFR (Mut/WT) (EGFR S768dupSVD V769M): 0.02679
- ratio of the IC50 value for cells with a PACC EGFR mutation to the IC50 value for cells with wildtype EGFR (EGFR I740dupIPVAK): 0.3555
- ratio of the IC50 value for cells with a PACC EGFR mutation to the IC50 value for cells with wildtype EGFR (EGFR L858R L718Q): 0.0157
- ratio of the IC50 value for cells with a PACC EGFR mutation to the IC50 value for cells with wildtype EGFR (EGFR E709_T710del insD): 0.3335
- ratio of IC50 for cells with mutant EGFR to IC50 for cells with wildtype EGFR (Mut/WT) (EGFR L858R T790M L718V): 2.011
- ratio of the IC50 value for cells with a PACC EGFR mutation to the IC50 value for cells with wildtype EGFR (EGFR G719A L861Q): 0.02387
- ratio of IC50 for cells with mutant EGFR to IC50 for cells with wildtype EGFR (Mut/WT) (EGFR Ex19del T790M C797S): 3.055
- ratio of the IC50 value for cells with a PACC EGFR mutation to the IC50 value for cells with wildtype EGFR (EGFR S768I V774M): 0.3996
- ratio of IC50 for cells with mutant EGFR to IC50 for cells with wildtype EGFR (Mut/WT) (EGFR T725M): 0.02572
- ratio of IC50 for cells with mutant EGFR to IC50 for cells with wildtype EGFR (Mut/WT) (EGFR L718Q T790M): 0.02624
- ratio of the IC50 value for cells with a PACC EGFR mutation to the IC50 value for cells with wildtype EGFR (EGFR Ex19del G724S): 0.2809
- ratio of IC50 for cells with mutant EGFR to IC50 for cells with wildtype EGFR (Mut/WT) (EGFR Ex19del T790M): 0.001513
- ratio of the IC50 value for cells with a PACC EGFR mutation to the IC50 value for cells with wildtype EGFR (EGFR L718Q): 0.02239
- ratio of the IC50 value for cells with a PACC EGFR mutation to the IC50 value for cells with wildtype EGFR (EGFR R776H): 0.09
- ratio of IC50 for cells with mutant EGFR to IC50 for cells with wildtype EGFR (Mut/WT) (EGFR Ex19del T790M L718V): 0.002884
- ratio of IC50 for cells with mutant EGFR to IC50 for cells with wildtype EGFR (Mut/WT) (EGFR L861R): 0.02984
- ratio of IC50 for cells with mutant EGFR to IC50 for cells with wildtype EGFR (Mut/WT) (EGFR A763insFQEA): 0.004982
- ratio of IC50 for cells with mutant EGFR to IC50 for cells with wildtype EGFR (Mut/WT) (EGFR L858R): 0.003918
- ratio of the IC50 value for cells with a PACC EGFR mutation to the IC50 value for cells with wildtype EGFR (EGFR R776C): 0.1072
